# Patent US10463590B1, “Antiplaque and dental health oral formulation” (priority 2018, dated 2019)
# Tests used:
# Type in all cases: cell-based
# [1] = test system: biofilm of Streptococcus mutans and Streptococcus sorbinus; assay: Preventive effect on biofilm formation, crystal violet staining assay after 24 h; settings: 10 μg/ml amoxicillin (FIG. 7C)
# Description: (§1) Two oral Streptococcus species, i.e., Streptococcus mutans AU159 strain and Streptococcus sorbinus SL1 strain, obtained from the American Type Culture Collection (Manassas, Va.), were tested in their two morphological forms: cocci planktonic form and biofilm. The stocks of both species were cultured in commonly used conditions, i.e., BHI broth (Remel, San Diego, Calif.) without antibiotics at 37° C. with 5% CO2, in sterile two-position cap 5 ml polypropylene test tubes.
# Preventive effect of the test mix against biofilm of Streptococcus mutans and Streptococcus sorbinus was evaluated by the commonly used crystal violet (CV) staining method, according to guidance of American Society for Microbiology to establish MBFC (Minimal Biofilm Formation Concentration) value. Briefly, 1×10^7 CFU/ml from homogeneous bacterial culture in BHI broth containing 1% sucrose, as a standard approach, was inoculated into saliva-coated 96-well plates and supplemented with the test mix. Control wells were treated with DMSO (i.e., 0.1-0.4% v/v) alone or amoxicillin (i.e., 10 μg/ml). All plates were then incubated at 37° C. with 5% CO2 for 24 h. […] The biofilms were carefully washed three times with 1×PBS (phosphate-buffered saline), and 200 μl of methanol was added to each well to extract a dye which was measured at 595 nm using a spectrophotometer (Molecular Device, Spectra Max 340). […]
# [2] = test system: Streptococcus mutans and Streptococcus sorbinus; assay: Bactericidal effect, broth macro-dilution combined with plating assay after 24 h; settings: 10 μg/ml amoxicillin (FIG. 7B)
# Description: as §1
# The plates were then incubated at 37° C. with 5% CO2 and bacterial re-growth was assessed after 24 h. The entire experiment was repeated three times for each strain. Control cultures were treated with DMSO (i.e., 0.1-0.4% v/v) alone or amoxicillin (i.e. 10 μg/ml).
# [3] = test system: Streptococcus mutans and Streptococcus sorbinus; assay: Bacteriostatic effect, broth macro-dilution assay (OD600) after 24 h; settings: 10 μg/ml amoxicillin (FIG. 7A)
# Description: as §1
# Growth inhibition of Streptococcus mutans and Streptococcus sorbinus was tested using standard macro-dilution method according to guidance of American Society for Microbiology to establish MIC (Minimal Inhibitory Concentration) value. Briefly, sterile 3 ml test two-position capped tubes containing 1 ml BHI broth, supplemented with the test mix was inoculated with 1×10^7 CFU/ml of the homogenous bacterial suspension. The tubes were then incubated at 37° C. with 5% CO2 and growth inhibition as a decrease in the optical density (OD600) was measured after 24 h. The entire experiment was repeated three times for each strain. Control cultures were treated with DMSO (i.e., 0.1-0.4% v/v) alone or amoxicillin (i.e. 10 μg/ml).
# [4] = test system: pre-existing biofilm of Streptococcus mutans and Streptococcus sorbinus; assay: Pre-formed biofilm killing (biocidal) effect, alamar Blue assay after 24 h; settings: 500 μg/ml amoxicillin (FIG. 7E)
# Description: as §1
# Qualitative and quantitative efficacy of the test mix against biofilm of Streptococcus mutans and Streptococcus sorbinus was evaluated by the commonly used crystal violet (CV) staining method supported by alamarBlue staining assay (where resazurin, a non-fluorescent indicator dye, is converted to bright red-fluorescent resorufin via the reduction reactions of metabolically active cells and the amount of fluorescence produced is proportional to the number of living cells) for evaluating cellular health, according to guidance of American Society for Microbiology and manufacturer's protocol to establish MBEC (Minimal Biofilm Eradication Concentration) and MBBC (Minimal Biofilm Biocidal Concentration) values. Briefly, 1×10^7 CFU/ml from homogeneous bacterial culture in BHI broth containing 1% sucrose, as a standard approach, was inoculated into saliva-coated 96-well plates and supplemented with the test mix. […]
smiles,measurement,setting,value
CC1(C)S[C@@H]2[C@H](NC(=O)[C@H](N)c3ccc(O)cc3)C(=O)N2[C@H]1C(=O)O [amoxicillin],preventive effect on biofilm formation,[1],approximately 99%
same,bactericidal effect,[2],100%
same,bacteriostatic effect,[3],100%
same,biocidal effect on pre-existing biofilm,[4],approximately 20%
